According to US4180582A, “6-n-Propyl-8-methoxy-methyl or methylmercaptomethylergolines and related compounds as prolactin inhibitors and to treat Parkinson's syndrome” (priority 1979, dated 1979):
Counter-ions that a name gives are not always drawn.

Tests used:
[1] = system: Parkinsonism; settings: in words; cited from earlier work
[2] = system: prolactin; settings: in words; cited from earlier work
[3] = system: dopamine receptors; settings: in words; cited from earlier work
[4] = system: 6-hydroxydopamine-lesioned rats; assay: turning behavior test in 6-hydroxydopamine-lesioned rats; assay type: in vivo, rat; settings: for Average Number of Turns/rat: first 15 minutes after end of latency period
Method: In this test, nigro-neostriatal-lesioned rats are employed, which are prepared by the procedure of Ungerstedt and Arbuthnott, Brain Res, 24, 485 (1970). A compound having dopamine agonist activity causes the rats to turn in circles contralateral to the side of the lesion. After a latency period, which varies from compound to compound, the number of turns is counted over a 15-minute period.
The compounds were dissolved in water and the aqueous solution injected into the rat by the intraperitoneal route.

[5] = system: prolactin; assay: inhibition of prolactin secretion in reserpine-treated male rats; assay type: in vivo, rat (Sprague-Dawley); set-up: Serum Prolactin Level: unit not given here; settings: for Percent Inhibition of Serum Prolactin: vs. control of same experiment
Method: Adult male rates of the Sprague-Dawley strain weighing about 200 g. were housed in an air-conditioned room with controlled lighting (lights on 6 a.m.-8 p.m.) and fed lab chow and water ad libitum. Each rat received an intraperitoneal injection of 2.0 mg. of reserpine in aqueous suspension 18 hours before administration of the ergoline derivative. The purpose of the reserpine was to keep prolactin levels uniformly elevated. The compounds under test were dissolved in 10 percent ethanol at a concentration of 10 mcg.ml. and were injected intraperitoneally at a standard dose of 50 mcg/kg. Each compound was administered to a group of 10 rats, and a control group of 10 intact males received an equivalent amount of 10 percent ethanol. One hour after treatment all rats were killed by decapitation, and 150 μl aliquots of serum were assayed for prolactin. The results were evaluated statistically using Student's "t" test to calculate the level of significance, "p", of the changes in prolactin level.
The difference between the prolactin level of the treated rats and prolactin level of the control rats, divided by the prolactin level of the control rats gives the percent inhibition of prolactin secretion attributable to the compounds of this invention. In the table, column 1 gives the name of the compound; column 2, the prolactin level for each group of rats; column 3, the percent prolactin inhibition; and column 4, the level of significance. The data were collected from three separate experiments, each with its own control, and Table 2 sets forth the results obtained by experiment.

[6] = system: dopamine receptors; assay: inhibition of high affinity binding of tritiated dopamine to dopamine receptors in membranes from striatal synaptosomes; set-up: species or system bovine; settings: in words
[7] = system: serotonin; assay: serotonin agonism; settings: in words
[8] = in words; cited from earlier work
[9] = 50 mcg/kg i.p., one hour after treatment

SMILES | % of Rats Exhibiting Turning Behavior ([4]; IP dose 1 mg/kg) [%] | Duration of Effect ([4]; IP dose 1 mg/kg) [h] | Latency of Effect ([4]; IP dose 1 mg/kg) [min] | Percent Inhibition of Serum Prolactin [5, 9] [%] | other results
CC(C)C[C@H]1C(=O)N2CCC[C@H]2[C@]2(O)O[C@](NC(=O)[C@@H]3C=C4c5cccc6[nH]c(Br)c(c56)C[C@H]4N(C)C3)(C(C)C)C(=O)N12 (stereo in doubt) [2-bromo-α-ergokryptine] | – | – | – | – | usefulness in the treatment of Parkinsonism [1]: useful in the treatment of Parkinsonism; activity as prolactin inhibitors [2]: activity as prolactin inhibitors; dopamine receptor stimulation [3]: stimulate dopamine receptors
CCCN1C[C@H](CSC)C[C@@H]2c3cccc4[nH]c(Br)c(c34)C[C@H]21 [D-2-bromo-6-n-propyl-8β-methylmercaptomethylergoline mesylate] | 100 | 1 | 5 | 89 | Average Number of Turns/rat ([4]; IP dose 1 mg/kg): 71 Turns/rat
CCN1C[C@H](CSC)C[C@@H]2c3cccc4[nH]cc(c34)C[C@H]21 [D-6-ethyl-8β-methylmercaptomethylergoline mesylate] | 100 | ≥ 2 | 9 | 91 | –
CN1CC(CC#N)C[C@@H]2c3cccc4[nH]cc(c34)C[C@H]21 (stereo partly drawn) [D-6-methyl-8-cyanomethylergoline] | – | – | – | – | activity as prolactin inhibitors [2]: activity as prolactin inhibitors
CSC[C@@H]1C[C@@H]2c3cccc4[nH]cc(c34)C[C@H]2N(C)C1 [D-6-methyl-8β-methylmercaptomethylergoline mesylate, reference compound] | 50 | – | – | 58 | Duration of Effect in Hours ([4]; IP dose 1 mg/kg): ~ 2 Hours; Average Number of Turns/rat ([4]; IP dose 1 mg/kg): 51 Turns/rat
CCCN1C[C@H](CSC)C[C@@H]2c3cccc4[nH]cc(c34)C[C@H]21 [D-6-n-Propyl-8β-methylmercaptomethylergoline] | – | – | – | – | inhibition of high affinity binding of tritiated dopamine [6]: extremely potent inhibitors; serotonin agonist / antagonist activity [7]: serotonin agonists rather than serotonin antagonists
CCCN1CC(CSC)=C[C@@H]2c3cccc4[nH]cc(c34)C[C@H]21 [D-6-n-propyl-8-methylmercaptomethyl-8-ergolene maleate] | 100 | 1 | 4 | 91 | –
CCCN1C[C@H](COC)C[C@@H]2c3cccc4[nH]cc(c34)C[C@H]21 [D-6-n-propyl-8β-methoxymethylergoline methanesulfonate] | 100 | ≥ 2 | 6 | 96 | –
CCCN1C[C@H](CSC)C=C2c3cccc4[nH]cc(c34)C[C@H]21 [D-6-n-propyl-8β-methylmercaptomethyl-9-ergolene] | 100 | ≥ 2 | 4 | 81 | Average Number of Turns/rat ([4]; IP dose 1 mg/kg): 200 Turns/rat
CCCN1C[C@H](CSC)C[C@@H]2c3cccc4[nH]cc(c34)C[C@H]21 [D-6-n-propyl-8β-methylmercaptomethylergoline methanesulfonate] | – | ≥ 24 | – | – | relative potency in the turning behavior test ([4]; vs. corresponding D-6-methyl derivative, dose response curves): about 30 times; relative potency as a prolactin inhibitor ([5]; vs. corresponding D-6-methyl compound, dose response curves): about 100 times
CCCN1C[C@H](C[S+](C)[O-])C[C@@H]2c3cccc4[nH]cc(c34)C[C@H]21 (stereo partly drawn) [D-6-n-propyl-8β-methylsulfinylmethylergoline mesylate] | 100 | 1 | 7 | 92 | Average Number of Turns/rat ([4]; IP dose 1 mg/kg): 65 Turns/rat; Serum Prolactin Level ([5]; 50 mcg/kg i.p., one hour after treatment, reserpine-treated male rats): 3.3
N[C@@H](Cc1ccc(O)c(O)c1)C(=O)O [Example 1-dopa, 1-dihydroxyphenylalanine] | – | – | – | – | metabolism [8]: rapidly metabolized
CC(C)C1C(=O)N2CCCC2C2(O)OC(NC(=O)C3CC4c5cccc6[nH]cc(c56)CC4N(C)C3)(C(C)C)C(=O)N12 (stereo not shown) [dihydroergocornine] | – | – | – | – | activity as prolactin inhibitors [2]: activity as prolactin inhibitors
CC(C)[C@H]1C(=O)N2CCC[C@H]2[C@]2(O)O[C@](NC(=O)[C@@H]3C=C4c5cccc6[nH]cc(c56)C[C@H]4N(C)C3)(C(C)C)C(=O)N12 [ergocornine] | – | – | – | – | activity as prolactin inhibitors [2]: activity as prolactin inhibitors; dopamine receptor stimulation [3]: stimulate dopamine receptors
CN1C[C@H](CC#N)C[C@@H]2c3cccc4[nH]c(Cl)c(c34)C[C@H]21 [legotrile] | – | – | – | – | usefulness in the treatment of Parkinsonism [1]: useful in the treatment of Parkinsonism
